For orientation: pKi means the negative decadic logarithm of the Ki, by convention in mol/L. High values mean a low Ki, low ones a high Ki.

Test [1] deals with D(3) dopamine receptor (Rattus norvegicus, UniProt P19020). The test can be described thus: Displacement of [3H]Spiperone from rat dopamine D3 receptor expressed in HEK293 cells.
For test [2], the target named is D(2) dopamine receptor (Rattus norvegicus, UniProt P61169). The test can be described thus: Displacement of [3H]Spiperone from rat dopamine D2L receptor expressed in HEK293 cells. A general note: Loss of bound radioactivity is the signal in a displacement assay; it reports binding, not function.

Molecules are shown by their SMILES. pKi: −log10 of the molar value.

Sequence of D(3) dopamine receptor (P19020 whole entry): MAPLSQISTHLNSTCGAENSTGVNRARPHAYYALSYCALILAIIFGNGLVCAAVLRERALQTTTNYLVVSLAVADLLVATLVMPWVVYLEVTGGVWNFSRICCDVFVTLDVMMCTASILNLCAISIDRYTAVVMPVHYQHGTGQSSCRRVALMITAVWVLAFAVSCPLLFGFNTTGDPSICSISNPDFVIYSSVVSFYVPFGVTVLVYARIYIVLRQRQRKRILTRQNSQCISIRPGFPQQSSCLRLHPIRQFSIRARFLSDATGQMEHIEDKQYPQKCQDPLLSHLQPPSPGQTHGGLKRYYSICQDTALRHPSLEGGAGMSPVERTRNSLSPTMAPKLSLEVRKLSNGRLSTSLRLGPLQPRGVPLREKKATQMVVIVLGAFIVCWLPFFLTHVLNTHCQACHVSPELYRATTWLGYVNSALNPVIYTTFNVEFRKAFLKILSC
Sequence of D(2) dopamine receptor (P61169 whole entry): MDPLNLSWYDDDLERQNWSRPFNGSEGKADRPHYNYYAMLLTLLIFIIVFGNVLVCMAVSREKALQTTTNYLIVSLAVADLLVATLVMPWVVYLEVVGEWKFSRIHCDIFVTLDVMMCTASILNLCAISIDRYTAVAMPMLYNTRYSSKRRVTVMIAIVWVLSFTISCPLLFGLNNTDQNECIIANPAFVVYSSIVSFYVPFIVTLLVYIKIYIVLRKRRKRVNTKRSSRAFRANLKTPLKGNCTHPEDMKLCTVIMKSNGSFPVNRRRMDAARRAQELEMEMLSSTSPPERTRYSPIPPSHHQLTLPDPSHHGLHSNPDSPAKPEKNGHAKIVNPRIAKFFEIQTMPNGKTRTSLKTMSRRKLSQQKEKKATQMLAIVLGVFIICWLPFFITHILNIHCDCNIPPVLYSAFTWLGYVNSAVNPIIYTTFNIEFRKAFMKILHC

As to `Oc1ccc2c(c1)C[C@@H]1[C@@H](CCCN1CCN1CCN(c3ccccc3)CC1)C2` (racemic) [(+/-)-cis-1-[2-(4-Phenylpiperazin-1-yl)ethyl]-1,2,3,4,4a,5,10,10a-octahydrobenzo[g]quinolin-8-ol], the values for the negative logarithm of the Ki (pKi) in test [1] and in test [2] were 6.38 and 5.48, respectively.

For the origin of these results see BindingDB's records for doi:10.1021/jm8008629 (Wayne State University, 2008).
